Assay results from patent publication US20240391862A1, “(1,4,5-TRISUBSTITUTED-1H-PYRAZOL-3-YL)OXY-2-ALKOXY ALKYL ACIDS AND THEIR DERIVATIVES, THEIR SALTS AND THEIR USE AS HERBICIDAL AGENTS” (Bayer AKtiengesellschaft, priority 2021, published 2024).

How the values were obtained:
[1] = system: MATIN; assay: Post-emergence herbicidal effect, greenhouse pot test; format: in vivo, Tripleurospermum inodorum; conditions: Tripleurospermum inodorum, 504 h, read-out: Post-emergence effect against MATIN in %
Description: (§1) • ALOMY: Alopecurus myosuroides SETVI: Setaria viridis • AVEFA: Avena fatua POLCO: Fallopia convolvulus • AMARE: Amaranthus retroflexus ECHCG: Echinochloa crus-galli • LOLRJ: Lolium rigidum STEME: Stellaria media • VERPE: Veronica persica MATIN: Tripleurospermum inodorum • DIGSA: Digitaria sanguinalis ABUTH: Abutylon threophrasti • TRZAS: Triticum aestivum VIOTR: Viola tricolor • BRSNW: Brassica napus ZEAMX: Zea mays • PHBPU: Ipomoea purpurea GLXMA: Glycine max • ORYSA: Oryza sativa HORMU: Hordeum murinum
(§2) Seeds of monocotyledonous and dicotyledonous weeds and crop plants are placed in sandy loam in plastic or organic planting pots, covered with soil and cultivated in a greenhouse under controlled growth conditions. 2 to 3 weeks after sowing, the trial plants are treated at the one-leaf stage. The compounds of the invention, formulated in the form of wettable powders (WP) or as emulsion concentrates (EC), are then sprayed onto the green parts of the plants as aqueous suspension or emulsion with addition of 0.5% additive at a water application rate of 600 l/ha (converted). After the test plants have been kept in the greenhouse under optimum growth conditions for about 3 weeks, the activity of the preparations is rated visually in comparison to untreated controls. For example, 100% activity=the plants have died, 0% activity=like control plants.
(§3) Tables 20a to 38c below show the effects/crop compatibilities of selected compounds of the general formula (I) on various harmful plants at an application rate corresponding to 20 to 320 g/ha, which were obtained by the trial procedure specified above.

[2] = system: ABUTH; assay: as above; format: in vivo, Abutilon theophrasti; conditions: Abutilon theophrasti, 504 h, visual rating about 3 weeks after treatment, read-out: Post-emergence effect against ABUTH
Description: as §1, §2, §3

[3] = system: ALOMY; assay: as above; format: in vivo, Alopecurus myosuroides; conditions: Alopecurus myosuroides, 504 h, visual rating about 3 weeks after treatment, read-out: Post-emergence effect against ALOMY
Description: as §1, §2, §3

[4] = system: LOLRI; assay: as above; format: in vivo, Lolium rigidum; conditions: Lolium rigidum, 504 h, read-out: Post-emergence effect against LOLRI in %
Description: as §1, §2, §3

[5] = system: DIGSA; assay: as above; format: in vivo, Digitaria sanguinalis; conditions: Digitaria sanguinalis, 504 h, visual rating about 3 weeks after treatment, read-out: Post-emergence effect against DIGSA
Description: as §1, §2, §3

[6] = system: VIOTR; assay: as above; format: in vivo, Viola tricolor; conditions: Viola tricolor, 504 h, read-out: Post-emergence effect against VIOTR in %
Description: as §1, §2, §3

[7] = system: ECHCG; assay: as above; format: in vivo, Echinochloa crus-galli; conditions: Echinochloa crus-galli, 504 h; for pest or weed control at 80 g/ha / pest or weed control at 320 g/ha: read-out: Post-emergence effect against ECHCG in %
Description: as §1, §2, §3

[8] = system: PHBPU; assay: as above; format: in vivo, Ipomoea purpurea; conditions: Ipomoea purpurea, 504 h, read-out: Post-emergence effect against PHBPU in %
Description: as §1, §2, §3

[9] = system: AMARE; assay: as above; format: in vivo, Amaranthus retroflexus; conditions: Amaranthus retroflexus, 504 h, visual rating about 3 weeks after treatment, read-out: Post-emergence effect against AMARE
Description: as §1, §2, §3

[10] = system: VERPE; assay: as above; format: in vivo, Veronica persica; conditions: Veronica persica, 504 h, read-out: Post-emergence effect against VERPE in %
Description: as §1, §2, §3

[11] = system: AVEFA; assay: as above; format: in vivo, Avena fatua; conditions: Avena fatua, 504 h, visual rating about 3 weeks after treatment, read-out: Post-emergence effect against AVEFA
Description: as §1, §2, §3

[12] = system: SETVI; assay: as above; format: in vivo, Setaria viridis; conditions: Setaria viridis, 504 h, read-out: Post-emergence effect against SETVI in %
Description: as §1, §2, §3

[13] = system: ZEAMX; assay: Post-emergence herbicidal effect and crop plant compatibility, greenhouse pot test; format: in vivo, Zea mays; conditions: Zea mays, 504 h, 20 g/ha, one-leaf stage, rated visually after about 3 weeks vs untreated controls, read-out: Post-emergence effect at 20 g/ha against ZEAMX in %
Description: as §1, §2, §3

[14] = system: KCHSC; assay: Post-emergence herbicidal effect, greenhouse pot test; format: in vivo; conditions: 504 h, read-out: Post-emergence effect against KCHSC in %
Procedure: as §2, with “plants. Tables 20a to 38c below show the effects/crop compatibilities of selected compounds of the general formula (I) on various harmful plants at an application rate corresponding to 20 to 320 g/ha, which were obtained by the trial procedure specified above.” for “plants.”

[15] = system: POLCO; assay: as above; format: in vivo, Fallopia convolvulus; conditions: Fallopia convolvulus, 504 h, 320 g/ha, read-out: Post-emergence effect against POLCO in %
Description: as §1, §2, §3

Compound	pest or weed control at 80 g/ha [1] [%]	pest or weed control at 320 g/ha [1] [%]	pest or weed control at 320 g/ha [2] [%]	pest or weed control at 320 g/ha [3] [%]	pest or weed control at 80 g/ha [4] [%]	pest or weed control at 320 g/ha [4] [%]	pest or weed control at 320 g/ha [5] [%]	pest or weed control at 80 g/ha [6] [%]	pest or weed control at 320 g/ha [6] [%]	pest or weed control at 80 g/ha [7] [%]	pest or weed control at 320 g/ha [7] [%]	pest or weed control at 20 g/ha [8] [%]	pest or weed control at 80 g/ha [8] [%]	pest or weed control at 320 g/ha [8] [%]	pest or weed control at 80 g/ha [10] [%]	pest or weed control at 320 g/ha [10] [%]	pest or weed control at 80 g/ha [11] [%]	pest or weed control at 320 g/ha [11] [%]	pest or weed control at 320 g/ha [12] [%]	further results
COC(=O)C(OC)Oc1nn(-c2ccccc2)c(-c2ccc(F)nc2)c1Cl (stereo not drawn) [Example I-26]	80	80	90	90	90	90	90	80	80	80	90	80	80	90	90	90	80	90	90	pest or weed control at 20 g/ha ([1]; 20 g/ha): 80%; pest or weed control at 80 g/ha ([3]; 80 g/ha): 90%; pest or weed control at 80 g/ha ([5]; 80 g/ha): 80%; pest or weed control at 20 g/ha ([9]; 20 g/ha): 80%; pest or weed control at 80 g/ha ([9]; 80 g/ha): 80%; pest or weed control at 320 g/ha ([9]; 320 g/ha): 80%; plant injury at 20 g/ha [13]: 20%
COC(=O)C(OC)Oc1nn(-c2ncccc2F)c(-c2cncc(F)c2)c1Br (stereo not drawn) [Example I-91]	80	80	80	80	90	90	90	80	80	80	90	80	80	80	80	80	90	90	80	pest or weed control at 20 g/ha ([14]; 20 g/ha): 80%; pest or weed control at 80 g/ha ([14]; 80 g/ha): 80%; pest or weed control at 320 g/ha ([14]; 320 g/ha): 90%; pest or weed control at 80 g/ha ([2]; 80 g/ha): 80%; pest or weed control at 20 g/ha ([6]; 20 g/ha): 80%; pest or weed control at 20 g/ha ([7]; 20 g/ha, visual rating about 3 weeks after treatment, read-out: Post-emergence effect against ECHCG): 80%; pest or weed control at 320 g/ha [15]: 80%; pest or weed control at 20 g/ha ([12]; 20 g/ha): 80%; pest or weed control at 80 g/ha ([12]; 80 g/ha): 80%
